# Where two headings read alike, the source gives them in different places.
# Legend:
# [1] = system: polychromatic erythrocytes; assay: Micronucleus frequencies (MNPCEs) as genotoxicity endpoint; type: in vivo, Sprague Dawley male rats; conditions: 30 mg/kg, seven days
# Experimental: In addition to sampling for biochemical and haematological analysis, one drop of blood samples was obtained from the animals for evaluating micronucleus frequencies as genotoxicity endpoint at the end of the experiments. Three different smears of each rat were prepared using pre-coded and cold slides, then the slides air-dried at room temperature, and fixed in ethanol for 10 min, and stained with Giemsa. […] The incidence of MN-PCEs was determined by scoring a total of 3000 PCE per animal and results were expressed as % MN [12].
# [2] = system: HSD fed rats; assay: In vivo efficacy study in high sucrose diet (HSD) steatosis rats; conditions: HSD plus 30 mg/kg seven days
# Text: In vivo efficacy studies. After 1-week acclimation period, rats were randomly separated into two groups: control group (n=5) and high sucrose group (n=20). The control group was fed with a standard diet while the others consumed high sucrose diet (HSD). Sucrose was purchased from Sigma Chemical Co. (St Louis, MO, USA) and supplied at the dose of 10% in the drink water for two weeks.
# After 2 weeks, five rats in the HSD group were randomly sacrificed for conformation of NAFLD model. Then, the remaining rats in the HSD group were separated into three sub-groups (n=5): HSD group, HSD plus BX-912 group and HSD plus JNK-IN-5A group. BX-912 and JNK-IN-5A were dissolved in DMSO and were orally administrated using oral gavage for one week (30 mg/kg/day). The HSD group were treated with vehicle solution only.
# At the end of the experiment, rats were sacrificed after being anesthetized. Blood samples were collected from the abdominal aorta and centrifuged at 8000 rpm for 15 min at 4° C. The plasma was separated and stored at −80° C. until further analysis. Other internal organs, including the heart, adipose tissues, liver, kidney, muscle, intestine (duodenum, ileum, jejunum), pancreas, colon and stomach were immediately removed and then snap frozen in liquid nitrogen and stored at −80° C.; the liver was also fixed in 10% formaldehyde for histopathological examination.
# Histopathological examination. The liver tissues were fixed in 10% buffered formaldehyde solution. After fixation, the tissues were passed through graded alcohol and xylene series and embedded in paraffin blocks. 5 micrometer thick sections were taken serially from the paraffin blocks. Histopathological changes were evaluated by performing hematoxylin eosin staining on the sections taken. Sections were evaluated according to histopathological findings as none (−), mild (+), moderate (++) and severe (+++).
# Immunohistochemical examination. After deparaffinization, the slides were immersed in antigen retrieval solution (pH 6.0) and heated in microwave for 15 min to unmask the antigens. The sections were then dipped in 3% H2O2 for 10 min to block endogenous peroxidase activity. Protein block was dropped onto the sections, washed with PBS for 10 min. Primary antibodies (8-OH-dG, Cat No: sc-66036, Diluent Ratio: 1/100, Santa Cruz) were prepared and applied according to the usage conditions. Expose mouse and rabbit specific HRP/DAB detection IHC kit were used as follows: sections were incubated with goat anti-mouse antibody, then with streptavidin peroxidase, and finally with 3,3′ diamino benzidine+chromogen. Slides were counter stained with hematoxylin. Immunoreactivity in the sections were graded as none (−), mild (+), moderate (++) and severe (+++).
# [3] = In vivo biosafety study in rats: histopathological and immunohistochemical examination; parameters: species or system Sprague Dawley male rats; conditions: 30 mg/kg, seven days
# Experimental: In vivo biosafety studies. Healthy Sprague Dawley male rats (12 weeks old, 250-280 g) were obtained from Atatürk University Experimental Research Center ([…] Turkey) and housed under standard environmental conditions (temperature 20° C.-25° C., humidity 50±20% and 12-hour light/dark diurnal cycle). Food and water were available ad libitum. Rats were randomly separated into one control group and two experimental groups (30 mg/kg/day BX-912 or JNK-IN-5A, n=5). […] The control group were received the same amount of vehicle solution only. After 7 days, rats were anaesthetized, and blood samples were collected from the abdominal aorta for biochemical and haematological analysis. The plasma was separated and stored at -80° C. for further analysis. Major organs such as heart, kidney, liver, muscle, adipose, intestine (duodenum, ileum, jejunum), pancreas, colon, and stomach were collected from all the animals for further analysis. Selected organs were fixed in 10% neutral buffered formalin for histopathological examination. Histopathological examination. […] Immunohistochemical examination. […] Slides were counter stained with hematoxylin.
# [4] = system: HepG2 cells; assay: Mitochondrial membrane potential assay (TMRE); type: cell-based, human; conditions: 10 μM, one day
# Experimental: HepG2 cells were seeded into a 6-well plate at 400,000 cells per well. After treatment with the compounds at desired concentration and time, TMRE (ab113852, abcam), Autophagy (ab139484, abcam), ROS (ab113851, abcam), and Lipid peroxidation (ab243377, abcam) assay were performed according to manufacturer's instructions. Fluorescence images were taken using ZOE™ Fluorescent Cell Imager (Biorad) and ROI of fluorescence intensity was measured and calculated by Image J. For microplate reader florescence assay, 40,000 of HepG2 cells were seeded into a 96-well plate and triplicated. GFP (Ex480 nm, Em530 nm) and RFP (Ex549 nm, Em574 nm) were measured using a microplate reader (Hidex Sense Meta Plus).
# [5] = MTT cell viability / IC50 in growth media; type: cell-based, human; conditions: human, HepG2 cells; 10 μM, treatment for 2 days
# Experimental: (§1) The cytotoxic effects of the synthesized drugs on the HepG2 cells were tested by MTT (Thiazolyl Blue Tetrazolium Bromide) method. HepG2 cells were seeded 2×10^4 cells per well in 96-well plate in 200 μL growth media. […] After the incubation period, 5 mg/ml MTT (M2128, Sigma-Aldrich) solution in PBS (10 μL) was added to each well. After 1 hr, the MTT solution and all media were removed from the wells. 100 μl of DMSO was added and mixed to dissolve the formazan crystals. Cell viability was analysed by measuring the absorbance of the dissolved formazan in a microplate reader at a wavelength of 570 nm with microplate reader (Hidex Sense Beta Plus).
# (§2) HepG2 cells were maintained and used with RPMI 1640 (R2405, Sigma-Aldrich) supplemented with 10% fetal bovine serum (F7524, Sigma-Aldrich), 1% P/S (P4333, Sigma-Aldrich). 20,000 cells per well of HepG2 cells were seeded into a 96-well plate and triplicated for MTT assay and LDH assay. Cell viability was measured by MTT assay (M6494, ThermoFisher) and cytotoxicity was measured by LDH assay kit (ab65393, abcam) by following manufacturer's instructions. Optical density (O.D) was numerated using a microplate reader (Hidex Sense Meta Plus).
# [6] = system: HepG2 cells; assay: MTT cell viability / IC50 in growth media; type: cell-based, human
# Experimental: as §1, §2
# [7] = system: HepG2 cells; assay: Invasion assay (transwell); type: cell-based, human; conditions: Homo sapiens, HepG2, 24 hr, read-out: invasiveness reduced by
# Experimental: The effects of the treatment with the compounds on the invasion ability of HepG2 and Huh7 cells were determined by 8 μm pores transwell chamber (Corning™ 3464, USA).
# (§3) Transwell membrane was coated with 100 μl collagen (Sigma C3867, USA) diluted with PBS to a concentration of 1 mg/ml. After overnight incubation at 4° C., the collagen solution was discarded and the membrane was washed with PBS. 100,000 cells in 200 μl serum free media together with the tested compounds were added into the upper well and 600 μl of 10% FBS supplemented growth media was added to the lower well as an invasive attractant in a 24-well plate. Cells were incubated at 37° C. in a CO2 incubator for one day. The cells were fixed with 3.7% formaldehyde for 30 minutes at room temperature and washed with PBS twice. The cells were stained with 1% crystal violet in PBS for 20 minutes and residual cells in inner membrane were swabbed gently with a cotton swab. Invaded cells located at the outer membrane were imaged by ZOE Fluorescent Cell Imager (Bio-Rad, USA) and counted by image. For wound healing assay, 100,000 cells per well were seeded into 24-well plates and grown until 95-100% confluent. Linear wound was created by using a 200 μl pipette tip. Image was recorded at the time point of day 0 until control group wound closure with 1 μM of compounds by ZOE Fluorescent Cell Imager (Bio-Rad, USA). Wound areas were measured using ImageJ software.
# [8] = system: JNK1/2/3; assay: Western blot, JNK1/2/3 P54 and p46 isoforms; type: cell-based, human; conditions: 10 μM, 2 days
# Experimental: HepG2 cells were seeded into a 6-well plate at 400,000 cells per well. After treatment with 10 μM of JNK-IN-5A and its derivatives for two days, lysates were harvested with CelLytic M (C2978, Sigma-Aldrich). […] SDS PAGE were performed using Mini-PROTEAN® TGX™ Precast Gels (Bio-Rad) and transferred using Trans-Blot® Turbo™ Transfer System (Bio-Rad). […] ImageQuantTMLAS 500 (29-0050-63, GE) was used to detect protein bands.
# [9] = system: HepG2 cells; assay: Triglyceride (TAG) measurement assay, one week steatosis model; type: cell-based, human; conditions: Homo sapiens
# Experimental: (§4) HepG2 wild type cells were purchased from genome engineering company Synthego. Cells were maintained with Roswell Park Memorial Institute growth media, RPMI, 1640 (R2405, Sigma-Aldrich) and supplemented with 10% fetal bovine serum (FBS, F7524, Sigma-Aldrich), 1% penicillin-streptomycin (P/S, P4333, Sigma-Aldrich). Steatosis induction media was prepared as high glucose Dulbecco's Modified Eagle Media (DMEM, D0819, Sigma-Aldrich) with 10% FBS, 1% P/S media supplemented with 10 μg/ml insulin (I9278, Sigma-Aldrich), and 10 μM T0901317 (T2320, Sigma-Aldrich). HepG2 cells were seeded 6×10^4 cells per well for 96-well plate and 1×10^6 cells per well for 6-well plate. HepG2 cells were incubated with steatosis induce media (SM) for one week by 3 day+2 day+2 day with total three times media exchange.
# HepG2 cells were seeded at 6×10^4 cells per well into 96 well plate and induced steatosis for one week with 10 μM of target drugs. After steatosis induction, cells were washed with 200 μl of phosphate buffered saline (PBS) and triglyceride contents was measured by Triglyceride Assay Kit—Quantification (ab65336, Abcam) following manufacturer's instruction. Optical density (O.D) values were detected with microplate reader at 570 nm (Hidex Sense Beta Plus).
# (§5) HepG2 cells were seeded at 60,000 cells per well in 96 well plate. Using steatosis induce media, the cells were treated with 10 μM of target drugs for one week. The media was changed 3 times at day 0, day 3 and day 5. TAG assay was performed using MAK266-1KT SDS Triglyceride Quantification Colorimetric kit and cell viability analysis was performed using MTT assay.
# [10] = MTT cell viability after one week steatosis (ranking of target molecules); type: cell-based, human; conditions: human, HepG2 cells (wild type); HepG2, 10 μM, one week steatosis induce media, MTT; Control 100.00
# Experimental: as §4, §5
# [11] = system: HepG2 cells; assay: FACs analysis with PI staining (cell cycle); type: cell-based, human; conditions: PI FACs, 10 μM, 2 days
# Experimental: 400,000 HepG2 cells were seeded in a 6-well plated and treated with 10 μM of the compounds for 2 days. Cells were fixed with 70% ethanol and stained with 50 μg/ml PI. Prepared cells were analysed using BD FACS Canto II Flow Cytometry system at PE-A channel 10,000 cells per group. The data was histogram plotted with BD FACSDiva 9.0.
# [12] = system: HepG2 cells; assay: Wound healing assay; type: cell-based; conditions: Homo sapiens, HepG2, 96 h, day 4, untreated 100% wound closure, read-out: wound healing delayed by
# Experimental: as §3
smiles,measurement,setting,value
O=C(Nc1cccc(Nc2ncc(Br)c(NCCc3cnc[nH]3)n2)c1)N1CCCC1 [BX-912],genotoxic potential,[1],non-genotoxic
same,frequencies of MNPCEs compared to Ctrl animals,[1]; p>0.05,not statistically different
same,degeneration in hepatocytes in liver tissues,[2]; HSD 3w severe,Mild
same,degeneration in renal tubule epithelium,[2]; HSD 3w severe,mild
same,fattening in the parenchyma cells of pancreas tissues,[2]; HSD 3w severe,mild
same,steatosis in hepatocytes in liver tissues,[2]; HSD 3w severe,moderate
same,8-OH-dG expression in hepatocytes,[2]; HSD 3w strong,significantly decreased
same,histological structures of major organs,[3],normal histological structures
same,side effects on the rats,[3],no side effects
same,8-OH-dG expression in liver tissues,[3]; IHC,negative
N#Cc1c(NC(=O)c2cccc3ccccc23)sc2c1CCN(CC(=O)Nc1ccnc(Cl)n1)C2 [PKL-B172],mitochondrial membrane potential,[4],significantly decreased
same,"viability at 2 days, 10 µM",[5],62.7%
same,IC50,"[6]; Homo sapiens, 48 h, HepG2, treatment for 2 days, 30 μM to 30 nM",13.3 µM
same,cell viability of HepG2 cells,[6]; especially in cancerous media,particularly low cell viability
same,inhibition at 1 µM,[7],72.3%
same,JNK1/2/3 p46 expression,[8],not significantly altered
same,activity at 10 µM,"[9]; 168 h, HepG2, 10 μM, one week steatosis induce media, Control 100.00, read-out: TAG (%)",22%
same,activity at 10 µM,"[9]; HepG2, 168 h, ratio between TAG content and cell viability, Control 100.0, read-out: TAG/cell viability",40.9%
same,"viability at 1 week, 10 µM",[10],53.7%
same,Cell population G0/G1,[11],16.7
same,Cell population G2/M,[11],73.2
same,Cell population S,[11],2.7
same,inhibition at 1 µM,[12],60.7%

# Reference: patent US20260234159A1, “SMALL MOLECULE TREATMENT OF FATTY LIVER DISEASE AND HCC” (SCANDIEDGE THERAPEUTICS AB, priority 2023, published 2026)
